The values below come from patent US8691804B2 (Evotec AG, priority 2008, dated 2014).

Structures are written as SMILES.

For this experiment, the target named is T1, human H3 receptors (Homo sapiens, UniProt Q9Y5N1).
T1 construct: host or cells: CHO-K1
T1 sequence (Q9Y5N1 whole entry): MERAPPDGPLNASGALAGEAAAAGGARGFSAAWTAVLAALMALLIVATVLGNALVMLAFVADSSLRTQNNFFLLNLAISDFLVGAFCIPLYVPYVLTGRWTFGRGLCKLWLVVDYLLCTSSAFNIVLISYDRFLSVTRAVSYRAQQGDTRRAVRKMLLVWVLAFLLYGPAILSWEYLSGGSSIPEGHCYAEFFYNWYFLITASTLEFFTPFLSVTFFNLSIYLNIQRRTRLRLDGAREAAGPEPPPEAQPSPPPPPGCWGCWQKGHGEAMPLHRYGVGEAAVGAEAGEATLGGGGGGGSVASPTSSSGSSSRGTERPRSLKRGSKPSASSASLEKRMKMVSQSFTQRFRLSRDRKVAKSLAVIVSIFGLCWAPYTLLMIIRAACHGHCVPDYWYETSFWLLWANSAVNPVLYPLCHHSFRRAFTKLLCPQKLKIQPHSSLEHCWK
In words: cAMP quantification assay for human H3 receptor testing. In kind it is cell-based. The conditions noted are these: CHO-K1 cells expressing human H3 receptors; inhibition of agonist-induced decrease of cAMP; 100 nM histamine, 10 μM forskolin; read-out: Potency range (IC50 values). How it is done: CHO—K1 cell line expressing human H3 receptors were purchased from Euroscreen (Gosselies, Belgium, Cat. no.: ES-392-C)
Human H3 receptor-expressing cell-lines were grown in Ham's F12 [Sigma, Cat. no. N6658], supplemented with 10% FBS [Sigma, Cat. no. F9665], 400 μg/ml G418 [Sigma, Cat. no. N1876] and 250 μg/ml Zeocin [Invitrogen, Cat. no. 46-0509]) according to the protocol provided by Euroscreen.
The assay measures the ability of test compounds to inhibit Histamine receptor agonist-induced decrease of intracellular free cAMP (receptor is Gi coupled).
Specifically, a cAMP quantification assay system from DiscoveRx (cAMP XS+; Cat. no. 90-0075) was used.
For the cAMP assay, confluent cells were detached from the culture vessels with 1× trypsin-EDTA solution (Sigma), and seeded into 384-well Costar plates (white, clear bottom, Cat. no. 3707) at a density of 10,000 cells per well. Cells were seeded in a volume of 50 μl in medium without antibiotics and incubated overnight in a humidified atmosphere with 5% CO2 at 37° C. The cAMP assay was performed according to the protocol provided by DiscoveRx.
The cell culture medium was removed and the cells washed once with PBS (50 μl per well). The plates were emptied by inversion and 7.5 μl/well of compound in PBS (containing 1 mM IBMX and 0.03% BSA) were added and incubated for 30 min at 37° C.
Subsequent 7.5 μl/well specific agonist solution was added and the plates for another 30 min incubated at 37° C.
hH3:100 nM histamine, 10 μM forskolin in PBS (containing 1 mM IBMX and 0.03% BSA)
After the incubation with the agonist, 5 μl/well cAMP XS antibody solution was added followed by 20 μl/well Gal/EII/Lysis (1:5:19)+ED (1:1). The plates were incubated for one hour at room temperature and afterwards 20 μl/well EA reagent was added. The luminescence was developed for approximately three hours at room temperature and the plates were read out using a ‘BMG Novostar’ plate reader.
Test compounds were assayed at 8 concentrations in triplicate. Serial 10-fold dilutions in 100% DMSO were made at a 100-times higher concentration than the final concentration and then diluted with a 2 step protocol in assay buffer to reach the required assay concentrations and 1% DMSO. […]
Turning to `O=C(N1CCCN(C2CCC2)CC1)N1CC(O)C1` [Example 1, 1-[(4-cyclobutyl-1,4-diazepan-1-yl)carbonyl]azetidin-3-ol], the IC50 was less than 100 nM.
As for `O=C(N1CCN(C2CCC2)CC1)N1CC(O)C1` [Example 2, 1-[(4-cyclobutylpiperazin-1-yl)carbonyl]azetidin-3-ol], the figure is 500 to 5000 nM.
`CNC(=O)c1ccc(OC2CN(C(=O)N3CCCN(C4CCC4)CC3)C2)nc1` [Example 3, 6-({1-[(4-cyclobutyl-1,4-diazepan-1-yl)carbonyl]azetidin-3-yl}oxy)-N-methylpyridine-3-carboxamide]: the IC50 was less than 100 nM.
As for `NC(=O)c1ccc(OC2CN(C(=O)N3CCCN(C4CCC4)CC3)C2)cn1` [Example 4, 5-({1-[(4-cyclobutyl-1,4-diazepan-1-yl)carbonyl]azetidin-3-yl}oxy)pyridine-2-carboxamide], the figure is less than 100 nM.
As for `CNC(=O)c1ccc(OC2CN(C(=O)N3CCCN(C4CCC4)CC3)C2)cn1` [Example 5, 5-({1-[(4-cyclobutyl-1,4-diazepan-1-yl)carbonyl]azetidin-3-yl}oxy)-N-methylpyridine-2-carboxamide], the figure is less than 100 nM; as for `CN(C)C(=O)c1ccc(OC2CN(C(=O)N3CCCN(C4CCC4)CC3)C2)cn1` [Example 6, 5-({1-[(4-cyclobutyl-1,4-diazepan-1-yl)carbonyl]azetidin-3-yl}oxy)-N,N-dimethylpyridine-2-carboxamide], less than 100 nM; as for `CCN(CC)C(=O)c1ccc(OC2CN(C(=O)N3CCCN(C4CCC4)CC3)C2)cn1` [Example 7, 5-({1-[(4-cyclobutyl-1,4-diazepan-1-yl)carbonyl]azetidin-3-yl}oxy)-N,N-diethylpyridine-2-carboxamide], less than 100 nM.
Consider `CNC(=O)c1ccc(OC2CN(C(=O)N3CCCN(C4CCC4)CC3)C2)cc1` [Example 8, 4-({1-[(4-cyclobutyl-1,4-diazepan-1-yl)carbonyl]azetidin-3-yl}oxy)-N-methylbenzamide], for which the IC50 was less than 100 nM.
Under `CN(C)C(=O)c1ccc(OC2CN(C(=O)N3CCCN(C4CCC4)CC3)C2)cc1` [Example 9, 4-({1-[(4-cyclobutyl-1,4-diazepan-1-yl)carbonyl]azetidin-3-yl}oxy)-N,N-dimethylbenzamide] stands less than 100 nM; under `O=C(N1CCCN(C2CCC2)CC1)N1CC(Oc2ccc(C(F)(F)F)cc2)C1` [Example 10, 1-cyclobutyl-4-({3-[4-(trifluoromethyl)phenoxy]azetidin-1-yl}carbonyl)-1,4-diazepane], less than 100 nM; under `O=C(N1CCCN(C2CCC2)CC1)N1CC(Oc2ccc(C(F)(F)F)cn2)C1` [Example 11, 1-cyclobutyl-4-[(3-{[5-(trifluoromethyl)pyridin-2-yl]oxy}azetidin-1-yl)carbonyl]-1,4-diazepane], less than 100 nM.
As for `N#Cc1ccc(OC2CN(C(=O)N3CCCN(C4CCC4)CC3)C2)cc1` [Example 12, 4-({1-[(4-cyclobutyl-1,4-diazepan-1-yl)carbonyl]azetidin-3-yl}oxy)benzonitrile], the figure is less than 100 nM.
As for `O=C(N1CCCN(C2CCC2)CC1)N1CC(Oc2ccc(F)cc2)C1` [Example 13, 1-cyclobutyl-4-{[3-(4-fluorophenoxy)azetidin-1-yl]carbonyl}-1,4-diazepane], the figure is less than 100 nM.
With `O=C(N1CCCN(C2CCC2)CC1)N1CC(Oc2ccc(Cl)cc2)C1` [Example 14, 1-{[3-(4-chlorophenoxy)azetidin-1-yl]carbonyl}-4-cyclobutyl-1,4-diazepane], the IC50 was less than 100 nM.
With `O=C(N1CCCN(C2CCC2)CC1)N1CC(Oc2ccccc2)C1` [Example 15, 1-cyclobutyl-4-[(3-phenoxyazetidin-1-yl)carbonyl]-1,4-diazepane], the IC50 was less than 100 nM.
Under `O=C(N1CCCN(C2CCC2)CC1)N1CC(Oc2ccc(Cn3cccn3)cc2)C1` [Example 16, 1-cyclobutyl-4-({3-[4-(1H-pyrazol-1-ylmethyl)phenoxy]azetidin-1-yl}carbonyl)-1,4-diazepane] stands less than 100 nM; under `O=C(N1CCCN(C2CCC2)CC1)N1CC(Oc2ccc(Cn3cccn3)cn2)C1` [Example 17, 1-cyclobutyl-4-[(3-{[5-(1H-pyrazol-1-ylmethyl)pyridin-2-yl]oxy}azetidin-1-yl)carbonyl]-1,4-diazepane], less than 100 nM.
As for `O=C(N1CCCN(C2CCC2)CC1)N1CC(Oc2ccc(N3CCCC3=O)cc2)C1` [Example 18, 1-[4-({1-[(4-cyclobutyl-1,4-diazepan-1-yl)carbonyl]azetidin-3-yl}oxy)phenyl]pyrrolidin-2-one], the IC50 was less than 100 nM.
Under `O=C(N1CCCN(C2CCC2)CC1)N1CC(Oc2ccc(CN3CCCCC3)cc2)C1` [Example 19, 1-cyclobutyl-4-({3-[4-(piperidin-1-ylmethyl)phenoxy]azetidin-1-yl}carbonyl)-1,4-diazepane] stands less than 100 nM.
As for `CN1CCN(Cc2ccc(OC3CN(C(=O)N4CCCN(C5CCC5)CC4)C3)cc2)CC1` [Example 20, 1-cyclobutyl-4-[(3-{4-[(4-methylpiperazin-1-yl)methyl]phenoxy}azetidin-1-yl)carbonyl]-1,4-diazepane], the figure is less than 100 nM; as for `O=C(N1CCCN(C2CCC2)CC1)N1CC(Oc2ccc(CN3CCC(F)(F)CC3)cc2)C1` [Example 21, 1-cyclobutyl-4-[(3-{4-[(4,4-difluoropiperidin-1-yl)methyl]phenoxy}azetidin-1-yl)carbonyl]-1,4-diazepane], less than 100 nM; as for `O=C(N1CCCN(C2CCC2)CC1)N1CC(Oc2ccc(Br)cn2)C1` [Example 22, 1-({3-[(5-bromopyridin-2-yl)oxy]azetidin-1-yl}carbonyl)-4-cyclobutyl-1,4-diazepane], less than 100 nM.
In the case of `O=C(N1CCCN(C2CCC2)CC1)N1CC(Oc2ccc(Cl)c(Cl)c2)C1` [Example 23, 1-cyclobutyl-4-{[3-(3,4-dichlorophenoxy)azetidin-1-yl]carbonyl}-1,4-diazepane], the IC50 is less than 100 nM.
Under `O=C(N1CCCN(C2CCC2)CC1)N1CC(Oc2ccc(Br)nc2)C1` [Example 24, 1-({3-[(6-bromopyridin-3-yl)oxy]azetidin-1-yl}carbonyl)-4-cyclobutyl-1,4-diazepane] stands less than 100 nM; under `Cc1cc(Cl)ccc1OC1CN(C(=O)N2CCCN(C3CCC3)CC2)C1` [Example 25, 1-{[3-(4-chloro-2-methylphenoxy)azetidin-1-yl]carbonyl}-4-cyclobutyl-1,4-diazepane], less than 100 nM; under `O=C(N1CCCN(C2CCC2)CC1)N1CC(Oc2ccc(-n3ccnc3)cc2)C1` [Example 26, 1-cyclobutyl-4-({3-[4-(1H-imidazol-1-yl)phenoxy]azetidin-1-yl}carbonyl)-1,4-diazepane], less than 100 nM.
Take `Cc1cc(OC2CN(C(=O)N3CCCN(C4CCC4)CC3)C2)ccn1` [Example 27, 1-cyclobutyl-4-({3-[(2-methylpyridin-4-yl)oxy]azetidin-1-yl}carbonyl)-1,4-diazepane]: the IC50 was less than 100 nM.
Under `O=C(N1CCCN(C2CCC2)CC1)N1CC(Oc2cccc(C(F)(F)F)c2)C1` [Example 28, 1-cyclobutyl-4-({3-[3-(trifluoromethyl)phenoxy]azetidin-1-yl}carbonyl)-1,4-diazepane] stands less than 100 nM; under `O=C(N1CCCN(C2CCC2)CC1)N1CC(Oc2ccccc2C(F)(F)F)C1` [Example 29, 1-cyclobutyl-4-({3-[2-(trifluoromethyl)phenoxy]azetidin-1-yl}carbonyl)-1,4-diazepane], less than 100 nM.
Take `N#Cc1cccc(OC2CN(C(=O)N3CCCN(C4CCC4)CC3)C2)c1` [Example 30, 3-({1-[(4-cyclobutyl-1,4-diazepan-1-yl)carbonyl]azetidin-3-yl}oxy)benzonitrile]: the IC50 was less than 100 nM.
Under `N#Cc1ccccc1OC1CN(C(=O)N2CCCN(C3CCC3)CC2)C1` [Example 31, 2-({1-[(4-cyclobutyl-1,4-diazepan-1-yl)carbonyl]azetidin-3-yl}oxy)benzonitrile] stands less than 100 nM; under `O=C(N1CCCN(C2CCC2)CC1)N1CC(Oc2cccc(Cl)c2)C1` [Example 32, 1-{[3-(3-chlorophenoxy)azetidin-1-yl]carbonyl}-4-cyclobutyl-1,4-diazepane], less than 100 nM; under `O=C(N1CCCN(C2CCC2)CC1)N1CC(Oc2ccccc2Cl)C1` [Example 33, 1-{[3-(2-chlorophenoxy)azetidin-1-yl]carbonyl}-4-cyclobutyl-1,4-diazepane], less than 100 nM.

As usually defined, the IC50 is the concentration that gives 50% inhibition.
